Laboratory results: patent US20140336218A1, “ARFORMOTEROL AND TIOTROPIUM COMPOSITIONS AND METHODS FOR USE” (priority 2008, published 2014)

How the values were obtained:
COPD patients [1] = assay: Spirometry (FEV1, FVC) in 2-week randomized, double dummy, parallel group clinical trial; type: in vivo, human
Procedure: (§1) This was a 2-week, prospective, multi-center (34 sites), randomized, modified blind, double dummy, parallel group study designed to evaluate the efficacy and safety of the combination of arformoterol 15 μg BID and tiotropium 18 μg QD (dosed sequentially) versus the individual mono-therapies in the treatment of COPD patients. The study was conducted according to the principles established by the Declaration of Helsinki (see, e.g., World Medical Association Declaration of Helsinki. Recommendations guiding physicians in biomedical research involving human subjects. JAMA 1997; 277:925-926.). Appropriate Institutional Review boards approved the protocol and written informed consent was obtained from the patients.
All patients had non-asthmatic COPD (including emphysema and/or chronic bronchitis). […] They also were required to have a pre-bronchodilator baseline pulmonary function of FEV1>0.7 L, FEV1/FVC ratio of ≦70%, and FEV1≦65% predicted. Patients were excluded if they had life-threatening or unstable respiratory status within 30 days of the screening visit. Patients who changed their prescribed dose or type of COPD medication within 14 days prior to screening or who had ever used tiotropium bromide inhalation powder were excluded.
(§2) Eligible patients were randomized to receive one of three treatments for 14 days: nebulized arformoterol 15 μg (Brovana®, Sepracor Inc., Marlborough, Mass.) BID and placebo DPI QD, nebulized placebo BID and tiotropium 18 μg (Spriva® HandiHaler® Boehringer Ingelheim, Ridgefield, Conn.) DPI QD, or nebulized arformoterol 15 μg BID and tiotropium 18 μg DPI QD. The nebulized drug was administered first using the PARI LC Plus® nebulizer driven by the Duraneb 3000® compressor (Pari: Pari Respiratory Equipment Inc., Midlothian, Va.) at a flow rate of 3.3 L/minute followed (within 5 minutes) by the DPI administration (HandiHaler®). The tiotropium and placebo DPI capsules were identical in size and shape but differed in color.
At week 0 and week 2, medical event calendars and blood samples were collected and vital signs and heart measurements analyzed. At week 0, spirometry was performed pre-morning dose, immediately (within 5 minutes) and at 30 minutes, 1, 2, 4, 6, 8, 10, and 12 hours post-first dose. After the 12-hour pulmonary function test patients self-administered the evening dose of study medication. At week 2, serial spirometry was also performed as at week 0, as well as immediately (within 5 minutes) following the evening dose (administered 12 hours after the morning dose) and 12.5, 13, 14, 16, 23, and 24 hours post-morning dose. Inspiratory capacity was evaluated pre-dose and at 2 hours post-morning dose at week 0, and pre-dose and 2, 11, 14, and 24 hours post-morning dose at week 2. All inspiratory capacity measurements were the mean of acceptable inspiratory capacity maneuvers, two of which were reproducible. Prior to an inspiratory capacity maneuver a patient had to have a stable expiratory level for about 10 breaths. Once the stable level was achieved, at the end of exhalation of a normal breath the patient was asked to make a steady and full inhalation at normal inspiratory flow rates until the lungs were completely full, and then to exhale at a normal rate.
All pulmonary function values used were the highest among the three acceptable maneuvers. The Investigator ensured that all spirometry was performed in accordance with the American Thoracic Society/European Respiratory Society Standardisation of Spirometry guidelines (see, e.g., Miller M R, Hankinson J, Brusasco V, Burgos F, Casaburi R, Coates A, et al. Standardisation of spirometry. Eur Respir J 2005; 26:319-338; herein incorporated in its entirety by reference). Centralized over-reading of spirometry and inspiratory capacity pulmonary function measures were used for quality control.

COPD patients [2] = assay: Transition Dyspnea Index (TDI) in 2-week clinical trial; type: in vivo, human
Procedure: as §1, §2
At screening, the Baseline Dyspnea Index (BDI) (see, e.g., Mahler D A, Weinberg D H, Wells C K, Feinstein A R. The measurement of dyspnea. Contents, interobserver agreement, and physiologic correlates of two new clinical indexes. Chest 1984; 85:751-758; herein incorporated in its entirety by reference) was assessed prior to the first clinic dose, and at week 2 the Transition Dyspnea Index (see id.) was evaluated before first morning dose. The baseline focal score (range 0 to 12) and the transition focal score (range −9 to 9) were the sums of the functional impairment, magnitude of task, and magnitude of effort scores (see id.). Higher scores indicate less dyspnea at baseline (BDI) or greater improvement in dyspnea from baseline (TDI).
The study was designed to detect a mean treatment difference of time normalized FEV1AUC over 24 hours (FEV1AUC0-24) (the primary endpoint) of 0.075 L with a standard deviation of 0.016 L when comparing combined therapy with mono-therapy, using a two-sided 5% significance level, following 2-weeks of dosing for the primary comparison with 80% power. All efficacy analyses were performed on the ITT population. All statistical testing was 2-tailed and conducted at the 5% significance level, unless otherwise indicated. […] To control for multiple comparisons, statistical tests of mean treatment group differences were considered significant if the overall treatment effect in the model was statistically significant at the 5% level. Pulmonary function severity subgroup analysis was performed post hoc by stratifying patients according to the GOLD COPD guidelines (see, e.g., Pauwels R A, Buist A S, Calverley P M, Jenkins C R, Hurd S S. Global strategy for the diagnosis, management, and prevention of chronic obstructive pulmonary disease. NHLBI/WHO Global Initiative for Chronic Obstructive Lung Disease (GOLD) Workshop summary. Am J Respir Crit Care Med 2001; 163:1256-1276;; herein incorporated in its entirety by reference) (<30%, ≧30% to <50%, and ≧50%, respectively). Pairwise comparisons between treatment groups were performed using least square means (LS means) from the linear model with the study baseline (or predose where applicable) as a covariate and the treatment group as a fixed effect.

[3] = ITT, change from baseline at week 2
[4] = ITT, week 2, combined therapy versus the mono-therapy
[5] = baseline percent predicted FEV1 <50%, week 2, combined versus the mono-therapy
[6] = baseline percent predicted FEV1 <50%, week 2 from study baseline
[7] = baseline percent predicted FEV1 ≧50%, week 2, combined versus the mono-therapy
[8] = baseline percent predicted FEV1 ≧50%, week 2 from study baseline
[9] = baseline percent predicted FEV1 <50%, week 2

Structure (SMILES): C[N+]1(C)[C@@H]2C[C@@H](OC(=O)C(O)(c3cccs3)c3cccs3)C[C@H]1[C@@H]1O[C@@H]12 [Tiotropium]
- Peak Change in FEV1 over 12 hours, mean (SD) (COPD patients [1]; [3]): 0.27 (0.23) L
- Peak change in FVC over 12 hours, mean (SD) (COPD patients [1]; [3]): 0.40 (0.34) L
- Change in FEV1AUC0-24, mean (SD) (COPD patients [1]; ITT, change from baseline at week 2, time normalized): 0.08 (0.20) L
- Difference between combined therapy and mono-therapies in change in FEV1AUC0-24, LS mean (COPD patients [1]; [4]): 0.14 L
- Difference between combined therapy and mono-therapies in change in trough FEV1, LS mean (COPD patients [1]; [4]): 0.07 L
- Difference between combined therapy and mono-therapies in peak change in FEV1 over 12 hours, LS mean (COPD patients [1]; [4]): 0.11 L
- Difference between combined therapy and mono-therapies in peak change in FVC over 12 hours, LS mean (COPD patients [1]; [4]): 0.20 L
- Change in trough FEV1, mean (SD) (COPD patients [1]; ITT, week 2, trough = 24 hour time point after morning dose): 0.08 (0.21) L
- Difference between combined therapy and mono-therapies in change in FEV1AUC0-24, LS mean (COPD patients [1]; [5]): 0.16 L
- Difference between combined therapy and mono-therapies in peak change in FEV1 over 12 hours, LS mean (COPD patients [1]; [5]): 0.14 L
- Difference between combined therapy and mono-therapies in peak change in FVC over 12 hours, LS mean (COPD patients [1]; [5]): 0.28 L
- Difference between combined therapy and mono-therapies in trough FEV1, LS mean (COPD patients [1]; [5]): 0.10 L
- Peak Change in FEV1 over 12 hours, mean (SD) (COPD patients [1]; [6]): 0.29 (0.26) L
- Peak change in FVC over 12 hours, mean (SD) (COPD patients [1]; [6]): 0.43 (0.37) L
- Trough FEV1 (change in FEV1 at 24 hours post-dose), mean (SD) (COPD patients [1]; [6]): 0.11 (0.22) L
- Change in FEV1AUC0-24, mean (SD) (COPD patients [1]; baseline percent predicted FEV1 <50%, week 2 from study baseline (pre-dose week 0)): 0.10 (0.22) L
- Difference between combined therapy and mono-therapies in change in FEV1AUC0-24, LS mean (COPD patients [1]; [7]): 0.12 L
- Difference between combined therapy and mono-therapies in peak change in FEV1 over 12 hours, LS mean (COPD patients [1]; [7]): 0.09 L
- Difference between combined therapy and mono-therapies in peak change in FVC over 12 hours, LS mean (COPD patients [1]; [7]): 0.08 L
- Difference between combined therapy and mono-therapies in trough FEV1, LS mean (COPD patients [1]; [7]): 0.04 L
- Peak Change in FEV1 over 12 hours, mean (SD) (COPD patients [1]; [8]): 0.23 (0.16) L
- Peak change in FVC over 12 hours, mean (SD) (COPD patients [1]; [8]): 0.34 (0.28) L
- Trough FEV1 (change in FEV1 at 24 hours post-dose), mean (SD) (COPD patients [1]; [8]): 0.03 (0.17) L
- Change in FEV1AUC0-24, mean (SD) (COPD patients [1]; baseline percent predicted FEV1 ≧50%, week 2 from study baseline (pre-dose week 0)): 0.05 (0.14) L
- mean improvement in peak FVC (COPD patients [1]; from baseline after 2 weeks of treatment): 40 mL
- LS mean (±SE) peak improvement in FEV1 from visit pre-dose (COPD patients [1]; from visit pre-dose): 0.19 L
- Patients with change ≧1 unit (TDI), n (%) (COPD patients [2]; ITT, week 2): 44 (57.1) n (%)
- Difference between combined therapy and mono-therapies in TDI, LS mean (COPD patients [2]; [4]): 1.3 L
- TDI, mean (SD) (COPD patients [2]; ITT, week 2, transition focal score range −9 to 9): 1.8 (2.8)
- Patients with change of ≧1 unit (TDI), n (%) (COPD patients [2]; [9]): 25 (52.1) n (%)
- TDI, mean (SD) (COPD patients [2]; [9]): 1.6 (3.0)
- Difference between combined therapy and mono-therapies in TDI, LS mean (COPD patients [2]; [5]): 2.0
- TDI, mean (SD) (COPD patients [2]; baseline percent predicted FEV1 ≧50%, week 2): 2.3 (2.5)
- Patients with change of ≧1 unit (TDI), % (COPD patients [2]; baseline percent predicted FEV1 ≧50%, week 2, cells print n (%)): 19 (67.9) %
- Difference between combined therapy and mono-therapies in TDI, LS mean (COPD patients [2]; [7]): 0.3
- improvement in TDI (COPD patients [2]; patients with <50% predicted FEV1 at baseline): 1.6 units
